{
  "source": "patent US7381744B1",
  "about": "“Method of treating osteoporosis comprising vacuolar-type (H+)-ATPase-inhibiting compounds” (The United States of America as represented by the …, priority 1999, dated 2008)",
  "assay_in_all_cases": "NCI 60 cell-line screen",
  "format_in_all_cases": "cell-based",
  "key": {"A498": {"system": "A498", "conditions": "Homo sapiens, Kidney, averaged, quadruplicate testing, read-out: negative log10 GI50 (converted)", "from_the_text": "(§1) It is the concentration where 100×(T−To)/To=−50=PG. […] Res., 34, 91-109 (1995)."}, "K-562": {"system": "K-562", "conditions": "Homo sapiens, K562, Leukemia, averaged, quadruplicate testing, read-out: negative log10 GI50 (converted)", "from_the_text": "as §1"}, "HOP-92": {"system": "HOP-92", "conditions": "Homo sapiens, Lung, averaged, quadruplicate testing, read-out: negative log10 GI50 (converted)", "from_the_text": "as §1"}, "MDA-N": {"system": "MDA-N", "conditions": "Homo sapiens, Breast, averaged, quadruplicate testing, read-out: negative log10 GI50 (converted)", "from_the_text": "as §1"}, "SR": {"system": "SR", "conditions": "Homo sapiens, Leukemia, averaged, quadruplicate testing, read-out: negative log10 GI50 (converted)", "from_the_text": "as §1"}, "SNB-19": {"system": "SNB-19", "conditions": "Homo sapiens, Brain, averaged, quadruplicate testing, read-out: negative log10 GI50 (converted)", "from_the_text": "as §1"}, "KM12": {"system": "KM12", "conditions": "Homo sapiens, Colon, averaged, quadruplicate testing, read-out: negative log10 GI50 (converted)", "from_the_text": "as §1"}, "HOP-62": {"system": "HOP-62", "conditions": "Homo sapiens, Lung, averaged, quadruplicate testing, read-out: negative log10 GI50 (converted)", "from_the_text": "as §1"}, "PC-3": {"system": "PC-3", "conditions": "Homo sapiens, Prostate, averaged, quadruplicate testing, read-out: negative log10 GI50 (converted)", "from_the_text": "as §1"}, "SF-295": {"system": "SF-295", "conditions": "Homo sapiens, Brain, averaged, quadruplicate testing, read-out: negative log10 GI50 (converted)", "from_the_text": "as §1"}, "UACC-62": {"system": "UACC-62", "conditions": "Homo sapiens, Melanoma, averaged, quadruplicate testing, read-out: negative log10 GI50 (converted)", "from_the_text": "as §1"}, "MOLT-4": {"system": "MOLT-4", "conditions": "Homo sapiens, Leukemia, averaged, quadruplicate testing, read-out: negative log10 GI50 (converted)", "from_the_text": "as §1"}, "CAKI-1": {"system": "CAKI-1", "conditions": "Homo sapiens, Kidney, averaged, quadruplicate testing, read-out: negative log10 GI50 (converted)", "from_the_text": "as §1"}, "MDA-MB-231/ATCC": {"system": "MDA-MB-231/ATCC", "conditions": "Homo sapiens, Breast, averaged, quadruplicate testing, read-out: negative log10 GI50 (converted)", "from_the_text": "as §1"}, "BT-549": {"system": "BT-549", "conditions": "Homo sapiens, Breast, averaged, quadruplicate testing, read-out: negative log10 GI50 (converted)", "from_the_text": "as §1"}, "HL-60-TB": {"system": "HL-60-TB", "conditions": "Homo sapiens, HL-60, read-out: negative log10 GI50 (converted)", "from_the_text": "as §1"}, "SK-OV-3": {"system": "SK-OV-3", "conditions": "Homo sapiens, Ovary, averaged, quadruplicate testing, read-out: negative log10 GI50 (converted)", "from_the_text": "as §1"}, "MALME-3M": {"system": "MALME-3M", "conditions": "Homo sapiens, Melanoma, averaged, quadruplicate testing, read-out: negative log10 GI50 (converted)", "from_the_text": "as §1"}, "SK-MEL-28": {"system": "SK-MEL-28", "conditions": "Homo sapiens, Melanoma, averaged, quadruplicate testing, read-out: negative log10 GI50 (converted)", "from_the_text": "as §1"}, "RPMI-8226": {"system": "RPMI-8226", "conditions": "Homo sapiens, Leukemia, averaged, quadruplicate testing, read-out: negative log10 GI50 (converted)", "from_the_text": "as §1"}, "OVCAR-8": {"system": "OVCAR-8", "conditions": "Homo sapiens, Ovary, averaged, quadruplicate testing, read-out: negative log10 GI50 (converted)", "from_the_text": "as §1"}, "CCRF-CEM": {"system": "CCRF-CEM", "conditions": "Homo sapiens, Leukemia, averaged, quadruplicate testing, read-out: negative log10 GI50 (converted)", "from_the_text": "as §1"}, "NCI-H522": {"system": "NCI-H522", "conditions": "Homo sapiens, Lung, averaged, quadruplicate testing, read-out: negative log10 GI50 (converted)", "from_the_text": "as §1"}, "MCF-7-ADR-RES": {"system": "MCF-7-ADR-RES", "conditions": "Homo sapiens, Breast, averaged, quadruplicate testing, read-out: negative log10 GI50 (converted)", "from_the_text": "as §1"}, "SF-268": {"system": "SF-268", "conditions": "Homo sapiens, Brain, averaged, quadruplicate testing, read-out: negative log10 GI50 (converted)", "from_the_text": "as §1"}, "OVCAR-5": {"system": "OVCAR-5", "conditions": "Homo sapiens, Ovary, averaged, quadruplicate testing, read-out: negative log10 GI50 (converted)", "from_the_text": "as §1"}, "OVCAR-4": {"system": "OVCAR-4", "conditions": "Homo sapiens, Ovary, averaged, quadruplicate testing, read-out: negative log10 GI50 (converted)", "from_the_text": "as §1"}, "HT29": {"system": "HT29", "conditions": "Homo sapiens, HT-29, Colon, averaged, quadruplicate testing, read-out: negative log10 GI50 (converted)", "from_the_text": "as §1"}, "RXF-393": {"system": "RXF-393", "conditions": "Homo sapiens, Kidney, averaged, quadruplicate testing, read-out: negative log10 GI50 (converted)", "from_the_text": "as §1"}, "NCI-H322M": {"system": "NCI-H322M", "conditions": "Homo sapiens, Lung, averaged, quadruplicate testing, read-out: negative log10 GI50 (converted)", "from_the_text": "as §1"}, "SNB-75": {"system": "SNB-75", "conditions": "Homo sapiens, Brain, averaged, quadruplicate testing, read-out: negative log10 GI50 (converted)", "from_the_text": "as §1"}, "DU-145": {"system": "DU-145", "conditions": "Homo sapiens, Prostate, averaged, quadruplicate testing, read-out: negative log10 GI50 (converted)", "from_the_text": "as §1"}},
  "data": [
    {"smiles": "CC/C=C\\C=C/C(=O)N/C=C/CC1CC(O)C(C)C/C=C/Cc2cccc(O)c2C(=O)O1", "note": "(centres unmarked) [salicylihalamide A]", "values": [
      {"measurement": "GI50", "setting": "A498", "result": 282, "unit": "nM"},
      {"measurement": "GI50", "setting": "K-562", "result": 3.89, "unit": "nM"},
      {"measurement": "GI50", "setting": "HOP-92", "result": 17, "unit": "nM"},
      {"measurement": "GI50", "setting": "MDA-N", "result": 10, "unit": "nM"},
      {"measurement": "GI50", "setting": "SR", "result": 3.63, "unit": "nM"},
      {"measurement": "GI50", "setting": "SNB-19", "result": 339, "unit": "nM"},
      {"measurement": "GI50", "setting": "KM12", "result": 5.01, "unit": "nM"},
      {"measurement": "GI50", "setting": "HOP-62", "result": 4.17, "unit": "nM"},
      {"measurement": "GI50", "setting": "PC-3", "result": 30.9, "unit": "nM"},
      {"measurement": "GI50", "setting": "SF-295", "result": 1.1, "unit": "nM"},
      {"measurement": "GI50", "setting": "UACC-62", "result": 4.17, "unit": "nM"},
      {"measurement": "GI50", "setting": "MOLT-4", "result": 11, "unit": "nM"},
      {"measurement": "GI50", "setting": "CAKI-1", "result": 1.1, "unit": "nM"},
      {"measurement": "GI50", "setting": "MDA-MB-231/ATCC", "result": 120, "unit": "nM"},
      {"measurement": "GI50", "setting": "BT-549", "result": 0.501, "unit": "nM"},
      {"measurement": "GI50", "setting": "HL-60-TB", "result": 0.912, "unit": "nM"},
      {"measurement": "GI50", "setting": "SK-OV-3", "result": 2880, "unit": "nM"},
      {"measurement": "GI50", "setting": "MALME-3M", "result": 24, "unit": "nM"},
      {"measurement": "GI50", "setting": "SK-MEL-28", "result": 100, "unit": "nM"},
      {"measurement": "GI50", "setting": "RPMI-8226", "result": 12.9, "unit": "nM"},
      {"measurement": "GI50", "setting": "OVCAR-8", "result": 3.72, "unit": "nM"},
      {"measurement": "GI50", "setting": "CCRF-CEM", "result": 12.9, "unit": "nM"},
      {"measurement": "GI50", "setting": "NCI-H522", "result": 55, "unit": "nM"},
      {"measurement": "GI50", "setting": "MCF-7-ADR-RES", "result": 8.51, "unit": "nM"},
      {"measurement": "GI50", "setting": "SF-268", "result": 28.2, "unit": "nM"},
      {"measurement": "GI50", "setting": "OVCAR-5", "result": 7.76, "unit": "nM"},
      {"measurement": "GI50", "setting": "OVCAR-4", "result": 5010, "unit": "nM"},
      {"measurement": "GI50", "setting": "HT29", "result": 2.88, "unit": "nM"},
      {"measurement": "GI50", "setting": "RXF-393", "result": 0.851, "unit": "nM"},
      {"measurement": "GI50", "setting": "NCI-H322M", "result": 191, "unit": "nM"},
      {"measurement": "GI50", "setting": "SNB-75", "result": 617, "unit": "nM"},
      {"measurement": "GI50", "setting": "DU-145", "result": 5.5, "unit": "nM"}
    ]}
  ]
}
